The values below come from PubChem BioAssay (NCI).

What is called GI50 is the concentration that inhibits growth by half. Usually TGI stands for the concentration giving total growth inhibition.

“And” between values parts separate entries of the source, which are not always exact repeats. Equal values may be shown once.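 Following 48 hours of exposure in 96-well plates, responses at five concentrations were used to interpolate endpoints linearly. GI50 = concentration required for 50% inhibition of growth. TGI: concentration producing complete growth inhibition.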

Among the test systems are HS 578T breast; BT-549 breast; XF 498 CNS; HOP-18 NSCLC; MDA-N.
What all share (experiment): DTP human tumour cell line panel, 48 h

Regarding `N#CSCC1CC(O)(c2ccccc2)CC(c2ccc(F)cc2)O1` (stereo not given), the figures for the GI50 with HS 578T breast and with BT-549 breast were 1.96 µM and 1.94 µM, respectively. The results for the TGI with HS 578T breast and with BT-549 breast were 4.6 µM and 4.31 µM, respectively.

`Clc1ccc(C2SCc3nc4ccccc4n32)cc1Cl` (stereo not given) had a TGI in the experiment with XF 498 CNS of 24.4 µM.

On to `NC(=O)c1ccc2nc(-c3ccc(Oc4ccc(Cl)cc4)cc3)[nH]c2c1`, for which, in the experiment on HS 578T breast, the GI50 was 24.2 µM and 16.5 µM; the TGI is 75 µM and 42.6 µM. Moreover, in the experiment with BT-549 breast, the GI50 was 18 µM and 12.9 µM; the TGI is 67.1 µM and 28.2 µM.

As for `Cn1ccnc1C(=O)/C=C/c1ccccc1`, the GI50 is 2.39 µM in the experiment on HS 578T breast and 3.63 µM with BT-549 breast. In addition, the figures for the TGI in the experiment on HS 578T breast and with BT-549 breast were 8.6 µM and 8.48 µM, respectively.

As for `CCC1CN2CCc3c([nH]c4ccccc34)C2C[C@@H]1CC(=O)N(C)C` (stereo not given in full), the TGI in the experiment on HOP-18 NSCLC and in the experiment on XF 498 CNS was above 100 µM in each case.

On to `Cc1cccc2c(=O)c3c(sc12)c(NCCNCCO)nc1ccccc13`, for which, in the experiment with HS 578T breast, the GI50 was 1.62 µM and the TGI came out at 3.74 µM. Besides, in the experiment on BT-549 breast, the GI50 was 1.58 µM and the TGI turned out to be 3.35 µM.

Take `c1csc(-c2cc(-c3cccs3)c(-c3cccs3)s2)c1`: the TGI with MDA-N, with HS 578T breast and in the experiment with BT-549 breast was above 100 µM each time.

The compound `COc1ccc2c(c1)n([O-])c1ccccc1[n+]2=O` had a TGI with MDA-N above 100 µM. Moreover, in the experiment on HS 578T breast, the GI50 is > 100 µM and 30.4 µM; the TGI is above 100 µM.

As for `CC(C)CCN=C(N)c1ccc(N2CCN(c3ccc(C(N)=NCCC(C)C)cc3)CC2)cc1`, in the experiment with BT-549 breast, the GI50 was 0.474 µM and the total growth inhibition concentration (TGI) was found to be 3.1 µM.

For `CC(=O)c1ccc(NC(=O)C(=O)Nn2c(=S)[nH]c3ccccc3c2=O)cc1`, the TGI in the experiment with HOP-18 NSCLC and in the experiment on XF 498 CNS was above 100 µM each time.

As to `O=C1C2C3C=CC(C2C(=O)N1COP(=O)(O)O)C1C2C(=O)N(COP(=O)(O)O)C(=O)C2C31` (stereo not given), the TGI in the experiment on HOP-18 NSCLC and in the experiment with XF 498 CNS was above 100 µM in each case.

Consider `COc1cc(OC)c(/C=C/c2cnc3ccccc3n2)c(OC)c1`, for which the TGI in the experiment with MDA-N, with HS 578T breast and with BT-549 breast was above 10 µM throughout.

Turning to `Fc1ccc(Nc2nc3nonc3nc2Nc2ccc(F)cc2)cc1`, in the experiment on HS 578T breast, the GI50 was 0.37 µM and the TGI was determined as 4.03 µM. In the experiment with BT-549 breast, the GI50 was 0.309 µM and the TGI was determined as 2.77 µM.

`COc1ccc(/C(C#N)=C/c2ccc(OC)c(OC)c2)cc1`: the TGI in the experiment on MDA-N and with HS 578T breast was above 100 µM throughout.

On to `COc1cc(Nc2ccnc(NCCCNc3ccnc4cc(Cl)ccc34)n2)cc(OC)c1`, for which, in the experiment on BT-549 breast, the GI50 is 1.79 µM and the TGI stood at 4.42 µM.

In the experiment on HOP-18 NSCLC, `O=[N+]([O-])c1cccc(C2ON2C2CCCCC2)c1` (stereo not given) had a TGI above 100 µM.

As to `Nc1nc(-c2ccccc2)nc(N)c1N=O`, in the experiment with HS 578T breast, the GI50 was 8.14 µM and the TGI was above 100 µM. In the experiment with BT-549 breast, the GI50 was 6.44 µM and the TGI is 19.1 µM.

In the case of `O=C(CCC(=O)C(C(=O)c1ccccc1)c1ccccc1)Nc1cccc(C(F)(F)F)c1` (stereo not given), the TGI in the experiment with HOP-18 NSCLC and with XF 498 CNS was above 100 µM throughout.

On to `Cc1cc(Cl)ccc1NC(=O)c1cc2ccccc2cc1O`, for which, in the experiment on HS 578T breast, the GI50 was 1.31 µM and the TGI is above 100 µM. For the same compound, in the experiment on BT-549 breast, the GI50 is 0.673 µM and the TGI is above 100 µM.

Take `NC(=O)c1cc(-c2ccc(F)cc2)cc(-c2ccncc2)c1N`: the GI50 in the experiment on HS 578T breast was 5.66 µM; in the experiment on BT-549 breast, above 25 µM. The TGI in the experiment on HS 578T breast was above 23.4 µM; in the experiment on BT-549 breast, above 25 µM.

As for `COc1cc(OC)c(C2CC=Cc3c(OC)cc(OC)c(OC)c32)cc1OC` (stereo not given), the concentration for total growth inhibition (TGI) with HOP-18 NSCLC and in the experiment on XF 498 CNS was above 100 µM in each case.

Take `CCC1CCc2nc3sc(C(=O)Nc4cccc(F)c4)c(N)c3cc2C1` (stereo not given): in the experiment on HS 578T breast, the GI50 was above 100 µM and the TGI was above 100 µM. In addition, in the experiment on BT-549 breast, the GI50 is above 100 µM and the TGI was above 100 µM.

As to `COc1ccc(OC)c(/C=C(/C)[N+](=O)[O-])c1`, the GI50 was 3.47 µM with HS 578T breast and 5.4 µM in the experiment with BT-549 breast. Moreover, the TGI in the experiment on HS 578T breast came out at 22.9 µM; in the experiment on BT-549 breast it was 18.5 µM.

As to `COc1ccc(-c2nc3ccccn3c2/C=C/C(=O)c2cc(OC)c(OC)c(OC)c2)cc1`, in the experiment on HS 578T breast, the GI50 is 2.89 µM and the TGI was 51.7 µM. Further, in the experiment on BT-549 breast, the GI50 was 3.27 µM and the TGI is above 100 µM.

With `CC(=O)O[C@]1(C(C)=O)CC[C@H]2[C@@H]3C=C(C)C4=CC(=O)CC[C@]4(C)[C@H]3CC[C@@]21C`, in the experiment with HS 578T breast, the GI50 is above 60.4 µM and the TGI is above 100 µM. Besides, in the experiment with BT-549 breast, the GI50 was 37.4 µM and the TGI was above 100 µM.

For the compound `COc1cc2c3c(n(CCCI)c(=O)c2cc1OC)-c1cc2c(cc1C3=O)OCO2`, in the experiment on HS 578T breast, the GI50 is above 100 µM and the TGI is above 100 µM. Besides, in the experiment with BT-549 breast, the GI50 is 1.82 µM and the TGI is 9.44 µM.

As to `COC(=O)C1=C(C)NC(C)=C(C(=O)OC)C1/C=C(Cl)/C=C/c1ccccc1`, the GI50 is 38.4 µM in the experiment on HS 578T breast and 21.6 µM in the experiment on BT-549 breast. For the same compound, the TGI with HS 578T breast was above 100 µM; in the experiment on BT-549 breast, 55.7 µM.

For `COC(=O)CCCC(=O)O`, the TGI with MDA-N, in the experiment with HS 578T breast and with BT-549 breast was above 100 µM each time.

Regarding `Fc1ccccc1C1CC(c2ccc3ccccc3c2)=Nc2ccccc2S1` (stereo not given), the TGI with HOP-18 NSCLC and with XF 498 CNS was above 100 µM in each case.

`C=C1CC/C=C(\C)C(=O)C[C@@H]2[C@@H]1CC2(C)C`: the TGI in the experiment with MDA-N is 3.16 µM; with BT-549 breast it was 11.6 µM.
